In ChEMBL document CHEMBL3352542, “Synthesis, biological evaluation and molecular modeling study of 2-(1,3,4-thiadiazolyl-thio and 4-methyl-thiazolyl-thio)-quinazolin-4-ones as a new class of DHFR inhibitors” (Bioorg Med Chem Lett, 2014):
Activity calls are given as the source filed them.

How the values were obtained:
Dihydrofolate reductase = target: T1, Dihydrofolate reductase (Bos taurus, UniProt P00376); test: Inhibition of bovine liver DHFR
T1 sequence (P00376 whole entry): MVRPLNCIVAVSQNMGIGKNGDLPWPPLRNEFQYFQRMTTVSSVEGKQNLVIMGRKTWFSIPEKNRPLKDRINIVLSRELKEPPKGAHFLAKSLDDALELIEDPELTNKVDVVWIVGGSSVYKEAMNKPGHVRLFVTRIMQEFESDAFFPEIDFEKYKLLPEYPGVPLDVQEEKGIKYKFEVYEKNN

Staphylococcus aureus = test: Antimicrobial activity against Staphylococcus aureus assessed as inhibition zone at 200 ug/disk after 24 hrs by disc-diffusion method; format: functional; conditions: read-out: IZ
Bacillus subtilis = test: Antimicrobial activity against Bacillus subtilis assessed as inhibition zone at 200 ug/disk after 24 hrs by disc-diffusion method; format: functional; conditions: read-out: IZ
Escherichia coli = test: Antimicrobial activity against Escherichia coli assessed as inhibition zone at 200 ug/disk after 24 hrs by disc-diffusion method; format: functional; conditions: read-out: IZ
Pseudomonas aeruginosa = test: Antimicrobial activity against Pseudomonas aeruginosa assessed as inhibition zone at 200 ug/disk after 24 hrs by disc-diffusion method; format: functional; conditions: read-out: IZ
Candida albicans = test: Antimicrobial activity against Candida albicans assessed as inhibition zone at 200 ug/disk after 24 hrs by disc-diffusion method; format: functional; conditions: read-out: IZ
CCRF-CEM = test: Growth inhibition of human CCRF-CEM cells at 10 uM after 48 hrs; format: functional
HL-60(TB) = test: Growth inhibition of human HL-60(TB) cells at 10 uM after 48 hrs; format: functional
K562 = test: Growth inhibition of human K562 cells at 10 uM after 48 hrs; format: functional
MOLT-4 = test: Growth inhibition of human MOLT4 cells at 10 uM after 48 hrs; format: functional
RPMI-8226 = test: Growth inhibition of human RPMI8226 cells at 10 uM after 48 hrs; format: functional
SR = test: Growth inhibition of human SR cells at 10 uM after 48 hrs; format: functional
A549 = test: Growth inhibition of human A549 cells at 10 uM after 48 hrs; format: functional
HOP-92 = test: Growth inhibition of human HOP92 cells at 10 uM after 48 hrs; format: functional
NCI-H226 = test: Growth inhibition of human NCI-H226 cells at 10 uM after 48 hrs; format: functional
NCI-H23 = test: Growth inhibition of human NCI-H23 cells at 10 uM after 48 hrs; format: functional
NCI-H460 = test: Growth inhibition of human NCI-H460 cells at 10 uM after 48 hrs; format: functional
NCI-H522 = test: Growth inhibition of human NCI-H522 cells at 10 uM after 48 hrs; format: functional
COLO 205 = test: Growth inhibition of human COLO205 cells at 10 uM after 48 hrs; format: functional
HCC 2998 = test: Growth inhibition of human HCC2998 cells at 10 uM after 48 hrs; format: functional
HCT-116 = test: Growth inhibition of human HCT116 cells at 10 uM after 48 hrs; format: functional
HCT-15 = test: Growth inhibition of human HCT15 cells at 10 uM after 48 hrs; format: functional
HT-29 = test: Growth inhibition of human HT-29 cells at 10 uM after 48 hrs; format: functional
KM12 = test: Growth inhibition of human KM12 cells at 10 uM after 48 hrs; format: functional
SW-620 = test: Growth inhibition of human SW620 cells at 10 uM after 48 hrs; format: functional
SF-268 = test: Growth inhibition of human SF268 cells at 10 uM after 48 hrs; format: functional
SF-295 = test: Growth inhibition of human SF295 cells at 10 uM after 48 hrs; format: functional
SF-539 = test: Growth inhibition of human SF539 cells at 10 uM after 48 hrs; format: functional
SNB-19 = test: Growth inhibition of human SNB19 cells at 10 uM after 48 hrs; format: functional
SNB-75 = test: Growth inhibition of human SNB75 cells at 10 uM after 48 hrs; format: functional
U-251 = test: Growth inhibition of human U251 cells at 10 uM after 48 hrs; format: functional
LOX IMVI = test: Growth inhibition of human LOXIMVI cells at 10 uM after 48 hrs; format: functional
Malme-3M = test: Growth inhibition of human MALME-3M cells at 10 uM after 48 hrs; format: functional
M14 = test: Growth inhibition of human M14 cells at 10 uM after 48 hrs; format: functional
MDA-MB-435 = test: Growth inhibition of human MDA-MB-435 cells at 10 uM after 48 hrs; format: functional
SK-MEL-5 = test: Growth inhibition of human SK-MEL-5 cells at 10 uM after 48 hrs; format: functional
UACC-257 = test: Growth inhibition of human UACC257 cells at 10 uM after 48 hrs; format: functional
UACC-62 = test: Growth inhibition of human UACC62 cells at 10 uM after 48 hrs; format: functional
OVCAR-3 = test: Growth inhibition of human OVCAR3 cells at 10 uM after 48 hrs; format: functional
OVCAR-4 = test: Growth inhibition of human OVCAR4 cells at 10 uM after 48 hrs; format: functional
OVCAR-5 = test: Growth inhibition of human OVCAR5 cells at 10 uM after 48 hrs; format: functional
OVCAR-8 = test: Growth inhibition of human OVCAR8 cells at 10 uM after 48 hrs; format: functional
NCI/ADR-RES = test: Growth inhibition of human NCI-ADR-RES cells at 10 uM after 48 hrs; format: functional
786-0 = test: Growth inhibition of human 786-0 cells at 10 uM after 48 hrs; format: functional
A498 = test: Growth inhibition of human A498 cells at 10 uM after 48 hrs; format: functional
ACHN = test: Growth inhibition of human ACHN cells at 10 uM after 48 hrs; format: functional
CAKI-1 = test: Growth inhibition of human CAKI-1 cells at 10 uM after 48 hrs; format: functional
RXF 393 = test: Growth inhibition of human RXF393 cells at 10 uM after 48 hrs; format: functional
SN12C = test: Growth inhibition of human SN12C cells at 10 uM after 48 hrs; format: functional
TK-10 = test: Growth inhibition of human TK10 cells at 10 uM after 48 hrs; format: functional
UO-31 = test: Growth inhibition of human UO31 cells at 10 uM after 48 hrs; format: functional
PC-3 = test: Growth inhibition of human PC3 cells at 10 uM after 48 hrs; format: functional
MCF7 = test: Growth inhibition of human MCF7 cells at 10 uM after 48 hrs; format: functional
MDA-MB-231 = test: Growth inhibition of human MDA-MB-231 cells at 10 uM after 48 hrs; format: functional
Hs-578T = test: Growth inhibition of human Hs 578T cells at 10 uM after 48 hrs; format: functional
BT-549 = test: Growth inhibition of human BT549 cells at 10 uM after 48 hrs; format: functional
T47D = test: Growth inhibition of human T47D cells at 10 uM after 48 hrs; format: functional
MDA-MB-468 = test: Growth inhibition of human MDA-MB-468 cells at 10 uM after 48 hrs; format: functional

COc1ccc(-n2c(Sc3sc(N)nc3C)nc3cc(OC)c(OC)cc3c2=O)cc1
inactive: growth inhibition (GI) (CCRF-CEM) | growth inhibition (GI) (HL-60(TB)) | growth inhibition (GI) (K562) | growth inhibition (GI) (MOLT-4) | growth inhibition (GI) (RPMI-8226) | growth inhibition (GI) (SR) | growth inhibition (GI) (A549) | growth inhibition (GI) (HOP-92) | growth inhibition (GI) (NCI-H226) | growth inhibition (GI) (NCI-H23) | growth inhibition (GI) (NCI-H460) | growth inhibition (GI) (NCI-H522) | growth inhibition (GI) (COLO 205) | growth inhibition (GI) (HCC 2998) | growth inhibition (GI) (HCT-116) | growth inhibition (GI) (HCT-15) | growth inhibition (GI) (HT-29) | growth inhibition (GI) (KM12) | growth inhibition (GI) (SW-620) | growth inhibition (GI) (SF-268) | growth inhibition (GI) (SF-295) | growth inhibition (GI) (SF-539) | growth inhibition (GI) (SNB-19) | growth inhibition (GI) (SNB-75) | growth inhibition (GI) (U-251) | growth inhibition (GI) (LOX IMVI) | growth inhibition (GI) (Malme-3M) | growth inhibition (GI) (M14) | growth inhibition (GI) (MDA-MB-435) | growth inhibition (GI) (SK-MEL-5) | growth inhibition (GI) (UACC-257) | growth inhibition (GI) (UACC-62) | growth inhibition (GI) (OVCAR-3) | growth inhibition (GI) (OVCAR-4) | growth inhibition (GI) (OVCAR-5) | growth inhibition (GI) (OVCAR-8) | growth inhibition (GI) (NCI/ADR-RES) | growth inhibition (GI) (786-0) | growth inhibition (GI) (A498) | growth inhibition (GI) (ACHN) | growth inhibition (GI) (CAKI-1) | growth inhibition (GI) (RXF 393) | growth inhibition (GI) (SN12C) | growth inhibition (GI) (TK-10) | growth inhibition (GI) (UO-31) | growth inhibition (GI) (PC-3) | growth inhibition (GI) (MCF7) | growth inhibition (GI) (MDA-MB-231) | growth inhibition (GI) (Hs-578T) | growth inhibition (GI) (BT-549) | growth inhibition (GI) (T47D) | growth inhibition (GI) (MDA-MB-468)
8 mm: zone of inhibition at 200 µg/disc (Staphylococcus aureus) | zone of inhibition at 200 µg/disc (Bacillus subtilis) | zone of inhibition at 200 µg/disc (Escherichia coli) | zone of inhibition at 200 µg/disc (Pseudomonas aeruginosa) | zone of inhibition at 200 µg/disc (Candida albicans)
1000 nM: IC50 (Dihydrofolate reductase)

Cc1ccc2nc(Sc3sc(N)nc3C)n(-c3ccccc3)c(=O)c2c1
inactive: growth inhibition (GI) (CCRF-CEM) | growth inhibition (GI) (HL-60(TB)) | growth inhibition (GI) (K562) | growth inhibition (GI) (MOLT-4) | growth inhibition (GI) (RPMI-8226) | growth inhibition (GI) (SR) | growth inhibition (GI) (A549) | growth inhibition (GI) (HOP-92) | growth inhibition (GI) (NCI-H226) | growth inhibition (GI) (NCI-H23) | growth inhibition (GI) (NCI-H460) | growth inhibition (GI) (NCI-H522) | growth inhibition (GI) (COLO 205) | growth inhibition (GI) (HCC 2998) | growth inhibition (GI) (HCT-116) | growth inhibition (GI) (HCT-15) | growth inhibition (GI) (HT-29) | growth inhibition (GI) (KM12) | growth inhibition (GI) (SW-620) | growth inhibition (GI) (SF-268) | growth inhibition (GI) (SF-295) | growth inhibition (GI) (SF-539) | growth inhibition (GI) (SNB-19) | growth inhibition (GI) (SNB-75) | growth inhibition (GI) (U-251) | growth inhibition (GI) (LOX IMVI) | growth inhibition (GI) (Malme-3M) | growth inhibition (GI) (M14) | growth inhibition (GI) (MDA-MB-435) | growth inhibition (GI) (SK-MEL-5) | growth inhibition (GI) (UACC-257) | growth inhibition (GI) (UACC-62) | growth inhibition (GI) (OVCAR-3) | growth inhibition (GI) (OVCAR-4) | growth inhibition (GI) (OVCAR-5) | growth inhibition (GI) (OVCAR-8) | growth inhibition (GI) (NCI/ADR-RES) | growth inhibition (GI) (786-0) | growth inhibition (GI) (A498) | growth inhibition (GI) (ACHN) | growth inhibition (GI) (CAKI-1) | growth inhibition (GI) (RXF 393) | growth inhibition (GI) (SN12C) | growth inhibition (GI) (TK-10) | growth inhibition (GI) (UO-31) | growth inhibition (GI) (PC-3) | growth inhibition (GI) (MCF7) | growth inhibition (GI) (MDA-MB-231) | growth inhibition (GI) (Hs-578T) | growth inhibition (GI) (BT-549) | growth inhibition (GI) (T47D) | growth inhibition (GI) (MDA-MB-468)
5000 nM: IC50 (Dihydrofolate reductase)
8 mm: zone of inhibition at 200 µg/disc (Staphylococcus aureus) | zone of inhibition at 200 µg/disc (Bacillus subtilis) | zone of inhibition at 200 µg/disc (Escherichia coli) | zone of inhibition at 200 µg/disc (Pseudomonas aeruginosa) | zone of inhibition at 200 µg/disc (Candida albicans)
